In ChEMBL document CHEMBL1135027, “Tyrosylprotein sulfotransferase inhibitors generated by combinatorial target-guided ligand assembly” (Bioorg Med Chem Lett, 2002) one finds IC50, inhibition and Inhibition data, which are given here for 20 compounds.

pIC50: −log10 of the molar value. Where only a bound is given, the exact number is not on record here.

The target of series [1] is T1, Protein-tyrosine sulfotransferase 2 (Homo sapiens, UniProt O60704).
T1 sequence (O60704 whole entry): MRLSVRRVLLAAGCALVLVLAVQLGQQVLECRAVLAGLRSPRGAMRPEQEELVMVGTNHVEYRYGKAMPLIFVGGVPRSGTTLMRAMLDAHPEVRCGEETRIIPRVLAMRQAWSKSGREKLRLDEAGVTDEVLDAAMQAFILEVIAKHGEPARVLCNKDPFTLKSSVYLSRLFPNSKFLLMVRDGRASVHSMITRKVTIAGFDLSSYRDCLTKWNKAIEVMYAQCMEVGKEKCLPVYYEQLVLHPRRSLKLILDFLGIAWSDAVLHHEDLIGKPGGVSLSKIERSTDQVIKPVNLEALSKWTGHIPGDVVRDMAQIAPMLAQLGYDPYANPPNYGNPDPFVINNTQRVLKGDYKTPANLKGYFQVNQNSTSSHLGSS
Kind of series: Inhibitory activity of compound was determined against human tyrosylprotein sulfotransferase-2 (hTPST-2) using [35S]PAPS radioligand.

Series [2] addresses T1, Protein-tyrosine sulfotransferase 2. Kind of series: Inhibitory activity of compound was determined against human tyrosylprotein sulfotransferase-2 (hTPST-2) using [35S]PAPS radioligand at 800 uM.
The target is the same in series [3]. In words: Displacement of [35S]PAPS from human tyrosylprotein sulfotransferase-2 (hTPST-2). More on the design: concentration or dose not given beside the values. For orientation: In a radioligand displacement assay an active substance lowers the binding of a labelled ligand.
The target is the same in series [4]. Kind of series: Compound was tested for reversible inhibition of human tyrosylprotein sulfotransferase-2 (hTPST-2) at 40 uM for 5 hours and dialyzed; complete reversible inhibition observed.
For series [5], the target named is T2, Carbohydrate sulfotransferase 4 (Homo sapiens) (UniProt Q8NCG5).
T2 sequence (whole entry): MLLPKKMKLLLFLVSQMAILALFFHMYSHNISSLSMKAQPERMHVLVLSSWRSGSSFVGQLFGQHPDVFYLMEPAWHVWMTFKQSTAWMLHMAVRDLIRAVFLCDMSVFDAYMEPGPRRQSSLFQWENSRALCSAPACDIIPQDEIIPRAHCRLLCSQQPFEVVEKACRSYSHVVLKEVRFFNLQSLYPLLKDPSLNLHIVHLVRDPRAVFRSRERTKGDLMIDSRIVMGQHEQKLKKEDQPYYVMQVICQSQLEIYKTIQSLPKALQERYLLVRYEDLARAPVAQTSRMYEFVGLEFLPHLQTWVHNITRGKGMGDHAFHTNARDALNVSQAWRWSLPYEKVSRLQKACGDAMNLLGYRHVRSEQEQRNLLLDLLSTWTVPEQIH
In words: Inhibitory activity of compound was determined against human high endothelial cell (HEC) GlcNAc-6-ST sulfotransferase at 100 uM. The format is cell-based.

In series [6] the target is T3, Sulfotransferase 1E1 (Homo sapiens, UniProt P49888).
T3 sequence (P49888 whole entry): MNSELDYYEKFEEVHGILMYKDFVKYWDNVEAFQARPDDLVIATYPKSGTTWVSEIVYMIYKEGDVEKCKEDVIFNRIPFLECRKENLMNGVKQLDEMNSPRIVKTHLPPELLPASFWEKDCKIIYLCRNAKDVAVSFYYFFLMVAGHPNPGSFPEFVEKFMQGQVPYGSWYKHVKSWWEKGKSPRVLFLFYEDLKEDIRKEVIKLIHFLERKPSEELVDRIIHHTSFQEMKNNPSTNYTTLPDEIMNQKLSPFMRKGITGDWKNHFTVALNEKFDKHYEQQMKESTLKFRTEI
In words: Compound was tested for inhibition against estrogen sulfotransferase (EST), a human cytosolic sulfotransferase.

For series [7], the target named is T4, estrogen sulfotransferase (Sulfotransferase 1E1) (Homo sapiens, UniProt P49888).
T4 sequence (P49888 whole entry): T3 sequence (P49888 whole entry)
In words: Inhibitory activity of compound was determined against estrogen sulfotransferase at 100 uM.

Series [8] can be described thus: Inhibitory activity of compound was determined against bacterial GlcNAc-6-sulfotransferase (NodST) at 100 uM.
Series [9] has as its target T4, estrogen sulfotransferase (Sulfotransferase 1E1). Kind of series: Inhibitory activity of compound was determined against human estrogen sulfotransferase at 100 uM.
Series [10] concerns the target T3, Sulfotransferase 1E1. In words: Compound was tested for inhibition against estrogen sulfotransferase (EST), a human cytosolic sulfotransferase.
The target in series [11] is T1, Protein-tyrosine sulfotransferase 2. In words: Compound was tested for reversible inhibition of human tyrosylprotein sulfotransferase-2 (hTPST-2) at 40 uM for 5 hours and dialyzed.

As usually defined, the pIC50 is the negative decadic logarithm of the IC50, by convention in mol/L. `CO/N=C/c1cc(Br)c(O)c(Br)c1` showed a negative logarithm of the IC50 (pIC50) in [1] of 3.37.
The term inhibition denotes the change of the read-out against control, counted positive when it falls. Turning to `CO/N=C/c1coc2c(Cl)cc(Cl)cc2c1=O`, the pIC50 in series [1] was < 3.00. The inhibition at 800 µM in [2] turned out to be 40%.
As usually defined, the Inhibition is the relative decrease from the control value, in per cent. Regarding `CO/N=C/C(=C/c1ccco1)c1ccccc1`, the Inhibition in [3] worked out at 55%.
Same read-out and setting: as for `CO/N=C/c1ccc(-c2ccc(Cl)cc2)o1`, the figure is 70%; as for `CO/N=C/C(C)=C/c1ccco1`, 59%.
Still for that read-out and setting: with `CO/N=C/c1c(O)ccc2ccccc12` the figure was 34%.
`CO/N=C/c1ccc(-c2cccc(Cl)c2)o1` yielded an Inhibition in series [3] of 50%.
As for `CO/N=C/c1cc(Br)cc([N+](=O)[O-])c1O`, the pIC50 in series [1] was < 3.00.
In series [3], `CO/N=C/c1cccc(F)c1O` came in with an Inhibition of 25%.
`O=c1c(/C=N/OCCCCCO/N=C/c2cc(Br)c(O)c(Br)c2)coc2c(Cl)cc(Cl)cc12`: the Inhibition entry in series [4] is “complete reversible inhibition observed”. Further, the inhibition was 30% in series [5] and 66% in series [8]. For the same compound, the values for the pIC50 in series [1] and in series [6] were 4.52 and 6.60, respectively. Also, at 100 µM the inhibition in series [7] was 100%.
Consider `O=c1c(/C=N/OCCCCCO/N=C/c2cc(Br)cc([N+](=O)[O-])c2O)coc2c(Cl)cc(Cl)cc12`, for which the inhibition in series [5] stood at 7%; in [8], 19%. Further, the pIC50 in [1] was 4.40; in series [10], 5.52. The inhibition at 100 µM in [9] is 100%. Besides, at 40 µM the inhibition in series [11] was 50%.
With `CO/N=C/c1cc(C)cc(Br)c1O`, the Inhibition in series [3] is listed as 31%.
In series [3], `CO/N=C/c1coc2ccc(Br)cc2c1=O` yielded an Inhibition of 85%.
Compound `CO/N=C/c1cc(I)c(O)c(OC)c1` came in with an Inhibition in series [3] of 53%.
Take `CO/N=C/c1ccc([N+](=O)[O-])s1`: the Inhibition in series [3] is reported as 65%.
Same read-out and setting: as for `CO/N=C/C=C/c1ccc([N+](=O)[O-])o1`, the figure is 47%; as for `CO/N=C/c1coc2cc(C)c(C)cc2c1=O`, 35%.
As for `CO/N=C/c1cc(OC)c(O)c(OC)c1`, the Inhibition in [3] amounted to 37%.
As for `CO/N=C/c1cc(I)cc(I)c1O`, the Inhibition in series [3] is recorded as 48%.
Compound `CO/N=C/c1c(N)oc2ccccc2c1=O` showed an Inhibition in [3] of 45%.
